From US9073855B2, “BCL-2 selective apoptosis-inducing agents for the treatment of cancer and immune diseases” (AbbVie Inc., priority 2008, dated 2015) come the findings set out here.

Molecules are shown by their SMILES. Where only a bound is given, the exact number is not on record here.

One experiment has as its target GST-Bcl-2 (Homo sapiens, UniProt P10415). The experiment can be described thus: TR-FRET binding assay, GST-Bcl-2 with F-Bak peptide probe. The note with it: TR-FRET Binding Affinity, GST-Bcl-2, F-Bak peptide probe. A digest of the protocol: (§1)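 Competitive TR-FRET: GST-fusion protein, fluorescent Bak peptide probe and Tb-labelled anti-GST antibody incubated with compound dilution series (starting 50 μM as 2× stock, 10% DMSO) for 3 h at RT. Excitation 340/35 nm; Ki derived via Wang's exact competitive-binding equation.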
For orientation: Time-resolved FRET reads energy transfer from a long-lived donor to a nearby acceptor.

The next experiment has as its target GST-Bcl-XL (Homo sapiens, UniProt Q07817). The experiment can be described thus: TR-FRET binding assay, GST-Bcl-XL with F-Bak peptide probe. The note with it: TR-FRET Binding Affinity, GST-Bcl-XL, F-Bak peptide probe. A digest of the protocol:
as §1

A further experiment concerns FL5.12/Bcl-2 cells. The experiment is described as follows: FL5.12/Bcl-2 cell viability assay under IL-3 withdrawal (CellTitre Glo). Conditions: Mus musculus, IL-3 withdrawn 48 hrs, then 24 hrs with compound. The class given is cell-based, murine. A digest of the protocol: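 Cells (1×10^6/ml) are washed, resuspended in medium lacking WEHI-3B conditioned medium as IL-3 source, and held 48 hrs. Compounds are then added at a range of concentrations for 24 hrs, after which CellTitre Glo reports viability.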

GST-Bcl-XL, sequence (Q07817 whole entry): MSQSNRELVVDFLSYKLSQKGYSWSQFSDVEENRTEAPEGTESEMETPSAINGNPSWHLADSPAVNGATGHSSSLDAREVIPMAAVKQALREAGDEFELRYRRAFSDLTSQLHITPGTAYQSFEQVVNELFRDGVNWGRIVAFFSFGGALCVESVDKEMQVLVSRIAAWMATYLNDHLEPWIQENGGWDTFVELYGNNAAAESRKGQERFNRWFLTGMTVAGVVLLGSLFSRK
GST-Bcl-2, sequence (P10415 whole entry, the tested form may be a part): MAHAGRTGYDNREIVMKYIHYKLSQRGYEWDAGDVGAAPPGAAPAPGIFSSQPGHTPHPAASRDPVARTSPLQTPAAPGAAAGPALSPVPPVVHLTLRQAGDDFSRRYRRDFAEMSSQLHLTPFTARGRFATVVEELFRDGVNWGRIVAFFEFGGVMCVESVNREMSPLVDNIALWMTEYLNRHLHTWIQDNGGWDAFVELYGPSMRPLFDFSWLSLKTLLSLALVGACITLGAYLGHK

Consider `CC1(C)CCC(CN2CCN(c3ccc(C(=O)NS(=O)(=O)c4ccc(NC5CCS(=O)(=O)C5)c([N+](=O)[O-])c4)c(Oc4cccc5[nH]ccc45)c3)CC2)=C(c2ccc(Cl)cc2)C1` (stereo not drawn) [Example 299, 4-(4-{[2-(4-chlorophenyl)-4,4-dimethylcyclohex-1-en-1-yl]methyl}piperazin-1-yl)-N-({4-[(1,1-dioxidotetrahydrothien-3-yl)amino]-3-nitrophenyl}sulfonyl)-2-(1H-indol-4-yloxy)benzamide], for which the Ki (as a rule, the dissociation constant of the complex between target and ligand, obtained from inhibition or displacement) stood at 0.425 nM on GST-Bcl-2 and 246 nM on GST-Bcl-XL. Also, in the experiment on FL5.12/Bcl-2 cells, the concentration for a half-maximal effect (EC50) (usually the concentration giving half of the maximal effect) was determined as 77.2 nM.
Take `CC1(C)CCC(CN2CCN(c3ccc(C(=O)NS(=O)(=O)c4ccc(NCC5CCS(=O)(=O)CC5)c([N+](=O)[O-])c4)c(Oc4cccc5[nH]ccc45)c3)CC2)=C(c2ccc(Cl)cc2)C1` [Example 301, 4-(4-{[2-(4-chlorophenyl)-4,4-dimethylcyclohex-1-en-1-yl]methyl}piperazin-1-yl)-N-[(4-{[(1,1-dioxidotetrahydro-2H-thiopyran-4-yl)methyl]amino}-3-nitrophenyl)sulfonyl]-2-(1H-indol-4-yloxy)benzamide]: the figures for the inhibitory constant (Ki) at GST-Bcl-2 and at GST-Bcl-XL were 0.291 nM and > 660 nM, respectively. In addition, the concentration for a half-maximal effect (EC50) with FL5.12/Bcl-2 cells was 59.5 nM.
For `CC1(C)CCC(CN2CCN(c3ccc(C(=O)NS(=O)(=O)c4ccc(NCC(F)F)c([N+](=O)[O-])c4)c(Oc4ccc5[nH]ccc5c4)c3)CC2)=C(c2ccc(Cl)cc2)C1` [Example 302, 4-(4-{[2-(4-chlorophenyl)-4,4-dimethylcyclohex-1-en-1-yl]methyl}piperazin-1-yl)-N-({4-[(2,2-difluoroethyl)amino]-3-nitrophenyl}sulfonyl)-2-(1H-indol-5-yloxy)benzamide], the Ki at GST-Bcl-2 is 0.504 nM; at GST-Bcl-XL, > 660 nM. Besides, in the experiment with FL5.12/Bcl-2 cells, the EC50 was 32.4 nM.
Turning to `CC1(C)CCC(CN2CCN(c3ccc(C(=O)NS(=O)(=O)c4ccc(NCC5CCOCC5)c(S(=O)(=O)C(F)(F)F)c4)c(Oc4cccc5[nH]ccc45)c3)CC2)=C(c2ccc(Cl)cc2)C1` [Example 303, 4-(4-{[2-(4-chlorophenyl)-4,4-dimethylcyclohex-1-en-1-yl]methyl}piperazin-1-yl)-2-(1H-indol-4-yloxy)-N-({4-[(tetrahydro-2H-pyran-4-ylmethyl)amino]-3-[(trifluoromethyl)sulfonyl]phenyl}sulfonyl)benzamide], the inhibition constant Ki is 1.48 nM on GST-Bcl-2 and > 660 nM on GST-Bcl-XL. Also, the EC50 in the experiment with FL5.12/Bcl-2 cells was > 500 nM.
On the same counts, the results for `CC1(C)CCC(CN2CCN(c3ccc(C(=O)NS(=O)(=O)c4ccc(NC5CCC(F)(F)CC5)c([N+](=O)[O-])c4)c(Oc4ccc5[nH]ccc5c4)c3)CC2)=C(c2ccc(Cl)cc2)C1` [Example 305, 4-(4-{[2-(4-chlorophenyl)-4,4-dimethylcyclohex-1-en-1-yl]methyl}piperazin-1-yl)-N-({4-[(4,4-difluorocyclohexyl)amino]-3-nitrophenyl}sulfonyl)-2-(1H-indol-5-yloxy)benzamide] are 3.68 nM, > 660 nM and > 500 nM.
On the same counts, the results for `CC1(C)CCC(CN2CCN(c3ccc(C(=O)NS(=O)(=O)c4ccc(OCC5(F)CCOCC5)c([N+](=O)[O-])c4)c(Oc4cccc5[nH]ccc45)c3)CC2)=C(c2ccc(Cl)cc2)C1` [Example 306, 4-(4-{[2-(4-chlorophenyl)-4,4-dimethylcyclohex-1-en-1-yl]methyl}piperazin-1-yl)-N-({4-[(4-fluorotetrahydro-2H-pyran-4-yl)methoxy]-3-nitrophenyl}sulfonyl)-2-(1H-indol-4-yloxy)benzamide] are 0.077 nM, 47.9 nM and 7.16 nM.
Take `CC(C)n1cc(CN2CCN(c3ccc(C(=O)NS(=O)(=O)c4ccc(NCC5CCOCC5)c([N+](=O)[O-])c4)c(Oc4ccc5[nH]ccc5c4)c3)CC2)c(-c2ccc(Cl)cc2)cc1=O` [Example 307, 4-(4-{[4-(4-chlorophenyl)-1-isopropyl-6-oxo-1,6-dihydropyridin-3-yl]methyl}piperazin-1-yl)-2-(1H-indol-5-yloxy)-N-({3-nitro-4-[(tetrahydro-2H-pyran-4-ylmethyl)amino]phenyl}sulfonyl)benzamide]: the values for the inhibition constant Ki at GST-Bcl-2 and at GST-Bcl-XL were 3.73 nM and > 660 nM, respectively. For the same compound, in the experiment with FL5.12/Bcl-2 cells, the EC50 is > 500 nM.
As to `CC1(C)CCC(CN2CCN(c3ccc(C(=O)NS(=O)(=O)c4ccc(C(=O)NCC5CCOCC5)cc4)c(Oc4ccc5[nH]ccc5c4)c3)CC2)=C(c2ccc(Cl)cc2)C1` [Example 308, 4-(4-{[2-(4-chlorophenyl)-4,4-dimethylcyclohex-1-en-1-yl]methyl}piperazin-1-yl)-2-(1H-indol-5-yloxy)-N-[(4-{[(tetrahydro-2H-pyran-4-ylmethyl)amino]carbonyl}phenyl)sulfonyl]benzamide], the values for the Ki at GST-Bcl-2 and on GST-Bcl-XL were 57.4 nM and > 660 nM, respectively. Also, the concentration for a half-maximal effect (EC50) in the experiment on FL5.12/Bcl-2 cells was > 500 nM.
On the same counts, the results for `COCCNc1ccc(S(=O)(=O)NC(=O)c2ccc(N3CCN(CC4=C(c5ccc(Cl)cc5)CC(C)(C)CC4)CC3)cc2Oc2cccc3[nH]ccc23)cc1S(=O)(=O)C(F)(F)F` [Example 309, 4-(4-{[2-(4-chlorophenyl)-4,4-dimethylcyclohex-1-en-1-yl]methyl}piperazin-1-yl)-2-(1H-indol-4-yloxy)-N-({4-[(2-methoxyethyl)amino]-3-[(trifluoromethyl)sulfonyl]phenyl}sulfonyl)benzamide] are 4.42 nM, > 660 nM and > 500 nM.
With `CC1(C)CCC(CN2CCN(c3ccc(C(=O)NS(=O)(=O)c4ccc(NC[C@H]5CC[C@H](O)CC5)c([N+](=O)[O-])c4)c(Oc4ccc5[nH]ccc5c4)c3)CC2)=C(c2ccc(Cl)cc2)C1` [Example 310, Trans-4-(4-{[2-(4-chlorophenyl)-4,4-dimethylcyclohex-1-en-1-yl]methyl}piperazin-1-yl)-N-[(4-{[(4-hydroxycyclohexyl)methyl]amino}-3-nitrophenyl)sulfonyl]-2-(1H-indol-5-yloxy)benzamide], the Ki was 0.049 nM at GST-Bcl-2 and > 660 nM at GST-Bcl-XL. The EC50 with FL5.12/Bcl-2 cells amounted to 4.51 nM.
Taken in the same sequence, the figures for `CO[C@H]1CC[C@H](CNc2ccc(S(=O)(=O)NC(=O)c3ccc(N4CCN(CC5=C(c6ccc(Cl)cc6)CC(C)(C)CC5)CC4)cc3Oc3ccc4[nH]ccc4c3)cc2[N+](=O)[O-])CC1` [Example 311, Trans-4-(4-{[2-(4-chlorophenyl)-4,4-dimethylcyclohex-1-en-1-yl]methyl}piperazin-1-yl)-2-(1H-indol-5-yloxy)-N-[(4-{[(4-methoxycyclohexyl)methyl]amino}-3-nitrophenyl)sulfonyl]benzamide] were 0.26 nM, > 660 nM and 33.4 nM.
Taken in the same sequence, the figures for `CC1(C)CCC(CN2CCN(c3ccc(C(=O)NS(=O)(=O)c4ccc(NC[C@H]5CC[C@@H](O)CC5)c([N+](=O)[O-])c4)c(Oc4ccc5[nH]ccc5c4)c3)CC2)=C(c2ccc(Cl)cc2)C1` [Example 312, Cis-4-(4-{[2-(4-chlorophenyl)-4,4-dimethylcyclohex-1-en-1-yl]methyl}piperazin-1-yl)-N-[(4-{[(4-hydroxycyclohexyl)methyl]amino}-3-nitrophenyl)sulfonyl]-2-(1H-indol-5-yloxy)benzamide] were 0.34 nM, > 660 nM and 19.2 nM.
Taken in the same sequence, the figures for `CO[C@H]1CC[C@@H](CNc2ccc(S(=O)(=O)NC(=O)c3ccc(N4CCN(CC5=C(c6ccc(Cl)cc6)CC(C)(C)CC5)CC4)cc3Oc3ccc4[nH]ccc4c3)cc2[N+](=O)[O-])CC1` [Example 313, Cis-4-(4-{[2-(4-chlorophenyl)-4,4-dimethylcyclohex-1-en-1-yl]methyl}piperazin-1-yl)-2-(1H-indol-5-yloxy)-N-[(4-{[(4-methoxycyclohexyl)methyl]amino}-3-nitrophenyl)sulfonyl]benzamide] were 0.044 nM, 66 nM and 82.9 nM.
On to `CC1(C)CCC(CN2CCN(c3ccc(C(=O)NS(=O)(=O)c4ccc(OCCC5CCOCC5)c([N+](=O)[O-])c4)c(Oc4cccc5[nH]ccc45)c3)CC2)=C(c2ccc(Cl)cc2)C1` [Example 314, 4-(4-{[2-(4-chlorophenyl)-4,4-dimethylcyclohex-1-en-1-yl]methyl}piperazin-1-yl)-2-(1H-indol-4-yloxy)-N-{[3-nitro-4-(2-tetrahydro-2H-pyran-4-ylethoxy)phenyl]sulfonyl}benzamide], for which the results for the Ki at GST-Bcl-2 and at GST-Bcl-XL were 3.07 nM and > 660 nM, respectively. Besides, the concentration for a half-maximal effect (EC50) in the experiment with FL5.12/Bcl-2 cells stood at 240 nM.
Taken in the same sequence, the figures for `CC1(C)CCC(CN2CCN(c3ccc(C(=O)NS(=O)(=O)c4ccc(OCCCS(C)(=O)=O)c([N+](=O)[O-])c4)c(Oc4cccc5[nH]ccc45)c3)CC2)=C(c2ccc(Cl)cc2)C1` [Example 316, 4-(4-{[2-(4-chlorophenyl)-4,4-dimethylcyclohex-1-en-1-yl]methyl}piperazin-1-yl)-2-(1H-indol-4-yloxy)-N-({4-[3-(methylsulfonyl)propoxy]-3-nitrophenyl}sulfonyl)benzamide] were 0.149 nM, 79.5 nM and 67.5 nM.
On the same counts, the results for `COCCCNc1ccc(S(=O)(=O)NC(=O)c2ccc(N3CCN(CC4=C(c5ccc(Cl)cc5)CC(C)(C)CC4)CC3)cc2Oc2ccc3[nH]ccc3c2)cc1[N+](=O)[O-]` [Example 317, 4-(4-{[2-(4-chlorophenyl)-4,4-dimethylcyclohex-1-en-1-yl]methyl}piperazin-1-yl)-2-(1H-indol-5-yloxy)-N-({4-[(3-methoxypropyl)amino]-3-nitrophenyl}sulfonyl)benzamide] are 2.8 nM, > 660 nM and 83.1 nM.
